Reference: ChEMBL document CHEMBL1201862, “PubChem BioAssay data set” (2004)
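These data come from cells grown in 96-well plates and exposed to compound for 48 hours at five concentrations. Here, GI50 denotes the concentration required for 50% inhibition of growth.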 Active and inactive are the calls of the source. Cut-off read from the data, not from the text of the source: active = GI50 up to about 1.1 µM and inactive = higher.

How the values were obtained:
Experiment in all cases: growth of human tumour cells (NCI), 48 h
786-0 = tested on: 786-0
A549 = tested on: A549
BT-549 = tested on: BT-549
DU-145 = tested on: DU-145
HOP-62 = tested on: HOP-62
HT-29 = tested on: HT-29
K562 = tested on: K562
LOX IMVI = tested on: LOX IMVI
M14 = tested on: M14
MDA-N = tested on: MDA-N
NCI/ADR-RES = tested on: NCI/ADR-RES
RPMI-8226 = tested on: RPMI-8226
SK-MEL-28 = tested on: SK-MEL-28
SK-MEL-2 = tested on: SK-MEL-2
SNB-75 = tested on: SNB-75
TK-10 = tested on: TK-10
UACC-62 = tested on: UACC-62
UO-31 = tested on: UO-31
CAKI-1 = tested on: CAKI-1
SF-539 = tested on: SF-539

Row | SMILES | GI50 (786-0) | GI50 (A549) | GI50 (BT-549) | GI50 (DU-145) | GI50 (HOP-62) | GI50 (HT-29) | GI50 (K562) | GI50 (LOX IMVI) | GI50 (M14) | GI50 (MDA-N) | GI50 (NCI/ADR-RES) | GI50 (RPMI-8226) | GI50 (SK-MEL-28) | GI50 (SK-MEL-2) | GI50 (SNB-75) | GI50 (TK-10) | GI50 (UACC-62) | GI50 (UO-31) | GI50 (CAKI-1) | GI50 (SF-539)
1 | NC(=O)CNC(=O)[C@@H]1CC(OCCC(=O)O)CN1C(=O)C1CCCN1C(=O)OCc1ccccc1 (stereo not given in full) | > 100 µM (inactive) | > 100 µM (inactive) | > 100 µM (inactive) | > 100 µM (inactive) | > 100 µM (inactive) | > 100 µM (inactive) | > 100 µM (inactive) | > 100 µM (inactive) | > 100 µM (inactive) | > 100 µM (inactive) | > 100 µM (inactive) | > 100 µM (inactive) | > 100 µM (inactive) | > 100 µM (inactive) | > 100 µM (inactive) | > 100 µM (inactive) | > 100 µM (inactive) | > 100 µM (inactive) |  | 
2 | COCCN(CCNC(=O)c1cccc2c(N)c3cccc(C)c3nc12)CCOC | 0.562 µM (active) | 0.692 µM (active) | 5.7 µM (inactive) | 1.28 µM (inactive) | 0.948 µM (active) | 0.558 µM (active) | 0.449 µM (active) | 1.04 µM (active) | 1.37 µM (inactive) | 0.875 µM (active) | 4.4 µM (inactive) | 1.12 µM (active) | 7.35 µM (inactive) | 5.36 µM (inactive) | 1.17 µM (inactive) | 1.49 µM (inactive) | 2.94 µM (inactive) |  | 0.528 µM (active) | 0.931 µM (active)
3 | COc1ccc(C2(CC(C)C)CCN(S(=O)(=O)c3ccc(C)cc3)C2)cc1OC (stereo not given) | 27.8 µM (inactive) | 27.2 µM (inactive) | 71.1 µM (inactive) | 36 µM (inactive) | 45.5 µM (inactive) | 35.6 µM (inactive) | 2.88 µM (inactive) | 19.5 µM (inactive) | 34.8 µM (inactive) | 70.8 µM (inactive) | 18.5 µM (inactive) |  | 30.1 µM (inactive) | 20.7 µM (inactive) | 36.9 µM (inactive) | 63.5 µM (inactive) | 43.9 µM (inactive) | 41.6 µM (inactive) | > 100 µM (inactive) | 37 µM (inactive)
4 | O=C1C=Cc2c(I)sc(I)c21 | 10.3 µM (inactive) | 26.2 µM (inactive) | 17.6 µM (inactive) | 30 µM (inactive) | 38.6 µM (inactive) | 23.9 µM (inactive) | 14.3 µM (inactive) | 12.1 µM (inactive) | 27 µM (inactive) | 24.9 µM (inactive) | 23.3 µM (inactive) |  | 19.8 µM (inactive) | 20.1 µM (inactive) | 30.1 µM (inactive) | 30.2 µM (inactive) | 28.8 µM (inactive) | 15.8 µM (inactive) | 18.7 µM (inactive) | 25.6 µM (inactive)
5 | CCn1c2ccccc2c2nnc(NCCCO)nc21 | > 100 µM (inactive) | > 100 µM (inactive) | > 100 µM (inactive) | > 100 µM (inactive) | > 100 µM (inactive) | > 100 µM (inactive) | > 100 µM (inactive) | > 100 µM (inactive) | > 100 µM (inactive) | > 100 µM (inactive) | > 100 µM (inactive) | > 100 µM (inactive) | > 100 µM (inactive) | > 100 µM (inactive) | 44.1 µM (inactive) | > 100 µM (inactive) | > 100 µM (inactive) |  | > 100 µM (inactive) | > 100 µM (inactive)
6 | c1cc(-c2csc(-c3ccsc3)c2)cs1 | > 100 µM (inactive) | > 100 µM (inactive) | > 100 µM (inactive) | > 100 µM (inactive) | 71.6 µM (inactive) | > 100 µM (inactive) | > 100 µM (inactive) | > 100 µM (inactive) | 47 µM (inactive) | > 100 µM (inactive) | > 100 µM (inactive) | > 100 µM (inactive) | > 100 µM (inactive) |  | > 100 µM (inactive) | > 100 µM (inactive) | > 100 µM (inactive) | > 100 µM (inactive) | > 100 µM (inactive) | 36.5 µM (inactive)
7 | [N-]=[N+]=NC(c1cn(C2CC(O)C(CO)O2)c(=O)[nH]c1=O)C(Cl)I (stereo not given) | > 100 µM (inactive) | > 100 µM (inactive) | > 100 µM (inactive) | > 100 µM (inactive) | > 100 µM (inactive) | > 100 µM (inactive) |  |  | > 100 µM (inactive) | > 100 µM (inactive) | > 100 µM (inactive) | > 100 µM (inactive) | > 100 µM (inactive) | > 100 µM (inactive) | 33.3 µM (inactive) | > 100 µM (inactive) | > 100 µM (inactive) | > 100 µM (inactive) |  | > 100 µM (inactive)
